Where a SMILES comes first, the peptide text is derived from it. Where no end group is shown, it is not given here. [ ]: non-standard residue; d: D form.
Columns and labels:
TF-1 cells = biological target: T1, TF-1 cells (Homo sapiens, UniProt P14778+Q9NPH3); experiment: IL-1ß-induced TF-1 proliferation; format: cell-based; conditions: Table 5; for Emax: TF-1
T1 sequence (P14778 18-569): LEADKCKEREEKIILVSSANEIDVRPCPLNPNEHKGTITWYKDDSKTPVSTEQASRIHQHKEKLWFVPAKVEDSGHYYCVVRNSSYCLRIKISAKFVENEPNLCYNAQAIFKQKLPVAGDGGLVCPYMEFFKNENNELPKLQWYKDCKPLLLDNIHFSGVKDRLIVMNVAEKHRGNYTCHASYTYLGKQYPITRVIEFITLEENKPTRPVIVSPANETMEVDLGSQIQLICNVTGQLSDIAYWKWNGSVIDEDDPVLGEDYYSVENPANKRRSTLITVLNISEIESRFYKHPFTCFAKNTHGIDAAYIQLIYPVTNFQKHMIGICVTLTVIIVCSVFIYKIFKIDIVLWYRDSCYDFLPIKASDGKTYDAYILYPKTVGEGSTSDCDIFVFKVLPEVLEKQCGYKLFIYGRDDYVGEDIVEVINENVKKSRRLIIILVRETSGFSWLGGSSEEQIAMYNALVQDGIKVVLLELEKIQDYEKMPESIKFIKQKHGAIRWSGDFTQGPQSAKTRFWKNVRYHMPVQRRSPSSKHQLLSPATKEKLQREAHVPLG
T1 sequence (Q9NPH3 21-570): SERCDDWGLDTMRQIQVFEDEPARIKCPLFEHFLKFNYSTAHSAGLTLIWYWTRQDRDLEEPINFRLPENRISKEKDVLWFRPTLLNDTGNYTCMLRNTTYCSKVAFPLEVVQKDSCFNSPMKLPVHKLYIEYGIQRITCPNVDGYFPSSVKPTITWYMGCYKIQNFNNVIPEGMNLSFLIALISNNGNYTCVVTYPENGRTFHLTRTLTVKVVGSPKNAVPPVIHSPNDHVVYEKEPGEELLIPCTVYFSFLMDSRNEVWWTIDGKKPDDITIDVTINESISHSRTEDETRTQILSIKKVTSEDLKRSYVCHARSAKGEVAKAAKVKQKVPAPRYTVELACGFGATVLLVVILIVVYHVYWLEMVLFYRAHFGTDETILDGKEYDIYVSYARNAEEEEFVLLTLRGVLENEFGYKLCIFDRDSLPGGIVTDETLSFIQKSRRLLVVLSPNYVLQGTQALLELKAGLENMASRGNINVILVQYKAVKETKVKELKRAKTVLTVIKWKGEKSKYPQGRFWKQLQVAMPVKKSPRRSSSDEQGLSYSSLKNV

rats = experiment: TNBS-induced inflammatory bowel disease model in rats, 48 h: MPO activity, macroscopic score, histologic score (Table 3: 1 no injury to 5 marked denudation); format: in vivo
Protocol: Colon inflammation was induced by intra-rectal/colon administration of the hapten trinitrobenzene sulphonic acid (TNBS) as described in Example 4. Two hours prior to TNBS administration, peptides, peptidomimetics or 0.9% saline were administered intravenously (iv) via the caudal vein (various concentrations of mg/kg/d) (total volume of 0.3ml). […] A third group (control) was not injected with TNBS. For intermittent administration, fifteen minutes after TNBS administration, 101.10 (0.25-1 mg/kg), 101.107 (0.2 mg/kg), 101.113 (0.05-1 mg/kg) were administered by intermittent intraperitoneal injection (ip). Also, these IL-1R antagonists were given twice a day (BID); Remicade® (anti-TNFα) (10 mg/kg) and dexamethasone (0.75 mg/kg) were administered intraperitoneally but only once a day (qd). The intrarectal administration (ir) of 101.10, 101.113 (1 and 2.5 mg/kg), and 5-ASA (50 mg/kg) was done one hour after TNBS administration, and twice a day, except for 5-ASA which is once a day. Finally, 101.10 (1-5 mg/kg) was also administered orally by gavage (po), twice a day. Forty-eight hours after administration of TNBS, rats were killed by CO2 inhalation. Colon was removed and assessed macroscopically (adhesions, ulcerations, discoloration and bleeding) and histologically (neutrophil infiltration, epithelial injury, crypt distortion and ulcerations). One to seven animals per group were studied, according to treatments. Myeloperoxidase (MPO) activity was measured on tissue lysates.
TABLE 3: Histological Injury Scoring System

[1] = system: IL-1 ß-induced proliferation and PGE2 synthesis; experiment: Structure vs activity summary of Table 4 (proliferation and PGE2 synthesis, not separated); format: cell-based; conditions: Table 4, derivatives of TTI-101.107
piglet pial vessels = system: piglet pial vessels; design: species or system Yorkshire piglets
Protocol: Ex vivo vasomotor response on brain vessels was performed as described (Li et al., 1996; Hou et al., 2000; Hou et al., 2001; Hou et al., 2003). Brains were removed from Yorkshire piglets. Slices of cortex exposing the pial vessels were pinned to a wax base of a 20 ml bath containing Krebs buffer (pH 7.4) equilibrated with 95% O2, 5% CO2 and maintained at 37°C. Microvessels were visualized and recorded using a video camera mounted on a dissecting microscope. Vascular diameter was measured using a digital image analyzer. Vascular diameter was recorded before and after topical application of pre-constricting agent, U46619 (10^-7 M). After stabilization of preparation, the ligand (IL-1β, 75 ng/ml) was added until stable vasodilation was detected. Peptides were subsequently added at different concentrations from 10^-10 to 10^-5 M. Reversal of vasodilatation was visualized and measured as previously described (Hou, et al. 2000; Hou et al. 2001; Hou et al. 2003); triplicate measurements were conducted on 2 animals.

[2] = intrarectal administration, dose 50.0-qd mg/kg/d
[3] = intermittent injection (ip), dose 0.75 - qd mg/kg/d

Row | Compound | activity compared with 101.113, in words (TF-1 cells) | Emax (TF-1 cells) [%] | further results
1 | CC(C)C[C@@H](NC(=O)[C@@H](CCC(=O)O)NC(=O)[C@H]1CCCN1C(=O)[C@H](NC(=O)[C@@H](Cc1c[nH]c2ccccc12)NC(=O)[C@H](N)CCCNC(=N)N)[C@H](C)O)C(N)=O [API-101.128, RWTPEL] | relatively decreased |  | 
2 | Nc1ccc(O)c(C(=O)O)c1 [5-ASA] |  |  | MPO (% of TNBS+Saline) (rats; [2]): 49 % of TNBS+Saline; histologic evaluation (median score) (rats; [2]): 3.3; macroscopic (median score) (rats; [2]): 1.5
3 | XRYTPELA (X=Acetyl) (Ac-[dR][dY][dT][dP][dE][dL][dA]) [API-101.121] |  |  | activity of the peptide, in words [1]: completely lost
4 | CC(C)C[C@@H](NC(=O)[C@@H](CCC(=O)O)NC(=O)[C@H](NC(=O)[C@H](NC(=O)[C@@H](Cc1ccc(O)cc1)NC(=O)[C@@H](CCCNC(=N)N)NC(=O)[C@H]1CCCN1C(=O)[C@@H](C)N)[C@H](C)O)C(C)C)C(=O)N[C@H](C)C(=O)O [API-101] |  |  | IC50 (piglet pial vessels): 182 nM
5 | CC(C)C[C@@H](NC(=O)[C@@H](CCC(=O)O)NC(=O)[C@H]1CCCN1C(=O)[C@H](NC(=O)[C@@H](Cc1ccc(O)cc1)NC(=O)[C@H](N)CCCNC(=N)N)[C@H](C)O)C(=O)O [API-101.113, RYTPEL] |  | 70 | 
6 | XYTPEL (X=Ornithine) [API-101.126] | little or no activity |  | Emax (%) (TF-1 cells): 0%
7 | C[C@@H]1C[C@H]2[C@@H]3CCC4=CC(=O)C=C[C@]4(C)[C@@]3(F)[C@@H](O)C[C@]2(C)[C@@]1(O)C(=O)CO [Dexamethasone, dexamethasone] |  |  | MPO (% of TNBS+Saline) (rats; [3]): 60 % of TNBS+Saline; histologic evaluation (median score) (rats; [3]): 3; macroscopic (median score) (rats; [3]): 0.87
8 | CC(C)C[C@@H](NC(=O)[C@@H](CCC(=O)O)NC(=O)[C@H]1CCCN1C(=O)[C@H](NC(=O)[C@@H](Cc1ccc(O)cc1)NC(=O)[C@@H](N)CCCNC(=N)N)[C@H](C)O)C(N)=O [API-101.135, *RYTPEL] |  | 63 | 
9 | CC(C)[C@@H](NC(=O)[C@@H](CCC(=O)O)NC(=O)[C@H]1CCCN1C(=O)[C@H](NC(=O)[C@@H](Cc1ccc(O)cc1)NC(=O)[C@H](N)CCCNC(=N)N)[C@H](C)O)C(N)=O [API-101.129, RYTPEV] |  | 50 | 
10 | RFVPELA [API-101.127] | completely abolished the activity |  | 
11 | CC(C)C[C@@H](NC(=O)[C@@H](CCC(=O)O)NC(=O)[C@H]1CCCN1C(=O)[C@H](NC(=O)[C@@H](Cc1ccc(O)cc1)NC(=O)[C@H](N)CCCNC(N)=O)[C@H](C)O)C(N)=O [API-101.134, XYTPEL (X=Citrulline)] |  | 10 | 
12 | KYTPEL [API-101.133] | little or no activity |  | Emax (%) (TF-1 cells): <10%
13 | CC(C)C[C@@H](NC(=O)[C@@H](CCC(=O)O)NC(=O)[C@H]1CCCN1C(=O)[C@H](NC(=O)[C@@H](Cc1ccccc1)NC(=O)[C@H](N)CCCNC(=N)N)[C@H](C)O)C(N)=O [API-101.132, RFTPEL] (HELM PEPTIDE1{[dR].[dF].[dT].[dP].[dE].[dL].[am]}$$$$V2.0; N-terminus and C-terminus assumed) | relatively decreased | 35 | 

Reference: patent EP1751175B1, “INTERLEUKIN-1 RECEPTOR ANTAGONISTS, COMPOSITIONS, AND METHODS OF TREATMENT” (VALORISATION-RECHERCHE, Société en Commandite, priority 2004, dated 2005)
